Measurements published in patent US20230053688A1, “METHODS TO ALTER LATENCY IN EBV+ MALIGNANCIES” (Cornell University, priority 2020, published 2023).
Where two headings read alike, the source gives them in different places.

Tested on: LMP1 expression in Kem I cells
Assay: microbe, parasite or virus in culture
Format: cell-based, EBV
Settings: for Average LMP1 Fold Increase / Replicate 1-LMP1 Fold Increase / Replicate 2-LMP1 Fold Increase: Kem I cells, 48 hours; for fold induction at 2.5 µM / fold induction at 1 µM: human gammaherpesvirus 4, 48 h
[1] = 2.5 uM, average of replicates 1 and 2
[2] = 2.5 uM, fold change in LMP1 transcript vs vehicle
[3] = dose 2.5 uM, LMP1 transcript by in-well qRT-PCR, average of the two replicates
[4] = dose 2.5 uM, LMP1 transcript by in-well qRT-PCR, screen replicate 1
[5] = dose 2.5 uM, LMP1 transcript by in-well qRT-PCR, screen replicate 2
[6] = read-out: Average LMP1 Fold Increase, Kem I cells, dose 2.5 uM, 48 hours, LMP1 transcript by in-well qRT-PCR, average of the two replicates
[7] = read-out: Replicate 1-LMP1 Fold Increase, Kem I cells, dose 2.5 uM, 48 hours, LMP1 transcript by in-well qRT-PCR, screen replicate 1
[8] = read-out: Replicate 2-LMP1 Fold Increase, Kem I cells, dose 2.5 uM, 48 hours, LMP1 transcript by in-well qRT-PCR, screen replicate 2
[9] = read-out: Average LMP1 Fold Increase, Kem I cells, 2.5 uM, 48 hours, average of replicates 1 and 2
[10] = read-out: Replicate 1-LMP1 Fold Increase, Kem I cells, 2.5 uM, 48 hours, fold change in LMP1 transcript vs vehicle
[11] = read-out: Replicate 2-LMP1 Fold Increase, Kem I cells, 2.5 uM, 48 hours, fold change in LMP1 transcript vs vehicle
[12] = read-out: Average LMP1 Fold Increase, Kem I cells, 1 uM, 48 hours, average of replicates 1 and 2
[13] = read-out: Replicate 1-LMP1 Fold Increase, Kem I cells, 1 uM, 48 hours, fold change in LMP1 transcript vs vehicle
[14] = read-out: Replicate 2-LMP1 Fold Increase, Kem I cells, 1 uM, 48 hours, fold change in LMP1 transcript vs vehicle
[15] = 1 uM, fold change in LMP1 transcript vs vehicle

Compound	Average LMP1 Fold Increase [1]	Replicate 1-LMP1 Fold Increase [2]	Replicate 2-LMP1 Fold Increase [2]	other results
NCC(=O)Nc1ccc(-n2nc(C(F)(F)F)cc2-c2ccc3c(ccc4ccccc43)c2)cc1 [OSU-03012 (AR-12)]	0.95	0.79	1.12	–
COc1cc2c(Nc3ccc(NC(=O)c4ccccc4)cc3)ncnc2cc1OCCCN1CCOCC1 [ZM 447439]	–	–	–	Average LMP1 Fold Increase [3]: 0.37 fold; Replicate 1-LMP1 Fold Increase [4]: 0.34 fold; Replicate 2-LMP1 Fold Increase [5]: 0.40 fold
COc1cc2c(cc1O)CC[C@@H]1[C@@H]2CC[C@]2(C)[C@@H](O)CC[C@@H]12 [2-Methoxyestradiol (2-MeOE2)]	1.00	0.65	1.34	–
O=c1ncccn1[C@@H]1O[C@H](CO)[C@@H](O)[C@H]1O [Zebularine]	–	–	–	fold induction at 2.5 µM [6]: 0.52; fold induction at 2.5 µM [7]: 0.24; fold induction at 2.5 µM [8]: 0.79
CCNC(=O)c1noc(-c2cc(C(C)C)c(O)cc2O)c1-c1ccc(CN2CCOCC2)cc1 [AUY922 (NVP-AUY922)]	1.29	1.62	0.96	–
Cc1cc(Nc2cc(N3CCN(C)CC3)nc(Sc3ccc(NC(=O)C4CC4)cc3)n2)n[nH]1 [VX-680 (Tozasertib, MK-0457)]	–	–	–	Average LMP1 Fold Increase [3]: 0.74 fold; Replicate 1-LMP1 Fold Increase [4]: 0.96 fold; Replicate 2-LMP1 Fold Increase [5]: 0.52 fold
CCC(CC)(NC(=O)C(C)C)C(=O)N[C@@H](CCCN=C(N)N)C(=O)NC1(C(=O)NC(c2ccc(F)cc2)c2ccc(F)cc2)CCCC1 [MM-102]	0.27	0.27	0.27	–
O=C(NC[C@H]1CN(c2ccc(N3CCOCC3=O)cc2)C(=O)O1)c1ccc(Cl)s1 [Rivaroxaban]	–	–	–	fold induction at 2.5 µM [9]: 0.14; fold induction at 2.5 µM [10]: 0.08; fold induction at 2.5 µM [11]: 0.2
COc1cc(N2CCN(C)CC2)ccc1Nc1nccc(-c2cn(C)c3cnccc23)n1 [AZ191]	0.37	0.50	0.24	–
CS(=O)(=O)N1CCN(Cc2cc3nc(-c4cccc5[nH]ncc45)nc(N4CCOCC4)c3s2)CC1 [GDC-0941]	0.92	0.75	1.09	–
COc1ccnc2[nH]cc(C(=O)C(=O)N3CCN(C(=O)c4ccccc4)C[C@H]3C)c12 [BMS-378806]	0.64	0.75	0.53	–
O=C(O)Cn1nnc(-c2cc(N3CCC(Oc4cc(F)ccc4Br)CC3)no2)n1 [MK-8245]	–	–	–	fold induction at 2.5 µM [9]: 1.17; fold induction at 2.5 µM [10]: 1.51; fold induction at 2.5 µM [11]: 0.84
Maraviroc	1.08	0.44	1.72	–
CC(C)c1cc(-c2n[nH]c(=O)n2-c2ccc3c(ccn3C)c2)c(O)cc1O [Ganetespib]	–	–	–	fold induction at 1 µM [12]: 23.4; fold induction at 1 µM [13]: 8.07; fold induction at 1 µM [14]: 38.8
N#Cc1ccc(C(c2ccc(C#N)cc2)n2cncn2)cc1 [Letrozole]	–	–	–	fold induction at 2.5 µM [9]: 1.05; fold induction at 2.5 µM [10]: 0.66; fold induction at 2.5 µM [11]: 1.44
Cc1ccccc1C(=O)Nc1ccc(C(=O)N2CCCC(O)c3cc(Cl)ccc32)c(C)c1 (stereo not drawn) [Tolvaptan]	–	–	–	fold induction at 2.5 µM [6]: 4.67; fold induction at 2.5 µM [7]: 1.11; fold induction at 2.5 µM [8]: 8.24
O=C(c1cn(Cc2cncn2Cc2ccc(Br)cc2)cc1-c1cccc2ccccc12)N1CCOCC1 [LB42708]	0.31	0.46	0.16	–
C=C1C(=O)O[C@@H]2/C=C(\C)CC/C=C(\C)CC[C@@H]12 [Costunolide]	–	–	–	fold induction at 2.5 µM [9]: 1.21; fold induction at 2.5 µM [10]: 0.79; fold induction at 2.5 µM [11]: 1.62
Cc1[nH]c(/C=C2\C(=O)Nc3ccc(S(=O)(=O)Cc4c(Cl)cccc4Cl)cc32)c(C)c1C(=O)N1CCC[C@@H]1CN1CCCC1 [PHA-665752]	–	–	–	fold induction at 2.5 µM [9]: 0.69; fold induction at 2.5 µM [10]: 0.55; fold induction at 2.5 µM [11]: 0.84
NC(=O)N1c2ccccc2CC(=O)c2ccccc21 [Oxcarbazepine]	–	–	–	fold induction at 2.5 µM [9]: 0.46; fold induction at 2.5 µM [10]: 0.54; fold induction at 2.5 µM [11]: 0.38
COC(=O)CCSCc1ccc(-c2onc(C)c2NC(=O)OC(C)c2ccccc2Cl)cc1 (stereo not drawn) [Ki16198]	1.33	1.53	1.12	–

Compound	Average LMP1 Fold Increase [1]	Replicate 1-LMP1 Fold Increase [2]	Replicate 2-LMP1 Fold Increase [2]	other results
O=C(c1cncc(Br)c1)N1CCC(N2CCCC2)CC1 [UNC669]	–	–	–	Average LMP1 Fold Increase [3]: 0.50 fold; Replicate 1-LMP1 Fold Increase [4]: 0.75 fold; Replicate 2-LMP1 Fold Increase [5]: 0.25 fold
Cl.Cl.O=S(=O)(NCCNC/C=C/c1ccc(Br)cc1)c1cccc2cnccc12 [H 89 2HCl]	0.68	0.54	0.82	–
O=C(Nc1ccccc1-c1cn2c(CN3CCNCC3)csc2n1)c1cnc2ccccc2n1 [SRT1720]	0.64	0.58	0.70	–
CC(C)C[C@@H](C(=O)N[C@H](C(=O)OC1CCCC1)c1ccccc1)[C@H](O)C(=O)NO [Tosedostat (CHR2797)]	–	–	–	Average LMP1 Fold Increase [3]: 0.64 fold; Replicate 1-LMP1 Fold Increase [4]: 0.56 fold; Replicate 2-LMP1 Fold Increase [5]: 0.72 fold
CN(C)C(=O)c1ccc(S(=O)(=O)c2ccc(NC(=O)[C@@](C)(O)C(F)(F)F)c(Cl)c2)cc1 [AZD7545]	0.67	0.40	0.94	–
COc1ccc2cc([C@H](C)C(=O)O)ccc2c1 [Naproxen]	–	–	–	fold induction at 2.5 µM [9]: 0.62; fold induction at 2.5 µM [10]: 0.69; fold induction at 2.5 µM [11]: 0.56
C[C@@H]1C(=O)O[C@H]2C[C@@]34[C@H]5C[C@@H](C(C)(C)C)[C@]36[C@@H](OC(=O)[C@@H]6O)O[C@@]4(C(=O)O5)[C@]21O [Ginkgolide A]	0.91	1.33	0.49	–
COc1ccc2c(c1)C(=O)N(CCc1ccc(S(=O)(=O)NC(=O)NC3CCCCC3)cc1)C(=O)C2(C)C [Gliquidone]	–	–	–	fold induction at 2.5 µM [9]: 0.77; fold induction at 2.5 µM [10]: 0.81; fold induction at 2.5 µM [11]: 0.73
Cc1ccc([C@@H]2O[C@H](CO)[C@@H](O)[C@H](O)[C@H]2O)cc1Cc1ccc(-c2ccc(F)cc2)s1 [Canagliflozin]	0.63	0.52	0.75	–
NC(=O)c1ccc(I)c([N+](=O)[O-])c1 [Iniparib (BSl-201)]	0.63	0.51	0.76	–
Nc1ccn([C@@H]2O[C@H](CO)[C@@H](O)[C@@H]2O)c(=O)n1 [Cytarbine]	–	–	–	Average LMP1 Fold Increase (1 uM, average of replicates 1 and 2): 2.31; Replicate 1-LMP1 Fold Increase [15]: 2.61; Replicate 2-LMP1 Fold Increase [15]: 2.01
COc1ccc2nc([S@@+]([O-])Cc3ncc(C)c(OC)c3C)[nH]c2c1 [Esomeprazole Sodium]	–	–	–	fold induction at 2.5 µM [9]: 0.3; fold induction at 2.5 µM [10]: 0.16; fold induction at 2.5 µM [11]: 0.44
Cn1cnc2c(F)c(Nc3ccc(Br)cc3Cl)c(C(=O)NOCCO)cc21 [Selumetinib (AZD6244)]	0.54	0.64	0.44	–
KX2-391	1.63	2.01	1.25	–
Oc1ccc(Nc2nc(-c3ccc(Cl)cc3)cs2)cc1 [SKI II]	1.00	0.96	1.03	–
O=C(Nc1ccccc1)N1CCN(c2nc(-c3ccccc3)ns2)CC1 [JNJ-1661010]	0.51	0.31	0.70	–
CCn1c2ccccc2c2cc(Nc3ccnc(NCCCN4CCOCC4)n3)ccc21 [EHop-016]	1.06	0.70	1.43	–
NC(=O)c1ncn([C@@H]2O[C@H](CO)[C@@H](O)[C@H]2O)c1N [Acadesine]	–	–	–	fold induction at 2.5 µM [9]: 0.58; fold induction at 2.5 µM [10]: 0.57; fold induction at 2.5 µM [11]: 0.59
COc1cc2c(N3CCN(C(=O)Nc4ccc(OC(C)C)cc4)CC3)ncnc2cc1OCCCN1CCCCC1 [Tandutinib (MLN518)]	–	–	–	Average LMP1 Fold Increase [3]: 0.31 fold; Replicate 1-LMP1 Fold Increase [4]: 0.21 fold; Replicate 2-LMP1 Fold Increase [5]: 0.41 fold
COC1=CC(c2cc3ccccc3[nH]2)=N/C1=C\c1[nH]c(C)cc1C [Obatoclax]	–	–	–	fold induction at 1 µM [12]: 13.7; fold induction at 1 µM [13]: 24.3; fold induction at 1 µM [14]: 3.03
